From ChEMBL document CHEMBL1201862, “PubChem BioAssay data set” (2004)
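Interpolation was linear, between the two tested concentrations surrounding the appropriate level; five concentrations were tested over 48 hours in 96-well plates. Here, GI50 denotes the concentration required for 50% inhibition of growth.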 Active and inactive are the calls of the source. Rule as the data show it: active = GI50 up to about 1.1 µM and inactive = higher.

Assays:
Assay in all cases: NCI tumour cell line growth inhibition, 48 h
786-0 = tested on: 786-0
A498 = tested on: A498
A549 = tested on: A549
ACHN = tested on: ACHN
CAKI-1 = tested on: CAKI-1
CCRF-CEM = tested on: CCRF-CEM
COLO 205 = tested on: COLO 205
DU-145 = tested on: DU-145
EKVX = tested on: EKVX
HCC 2998 = tested on: HCC 2998
HCT-116 = tested on: HCT-116
HCT-15 = tested on: HCT-15
HL-60 = tested on: HL-60
HOP-92 = tested on: HOP-92
HT-29 = tested on: HT-29
Hs-578T = tested on: Hs-578T
IGROV-1 = tested on: IGROV-1
K562 = tested on: K562
KM12 = tested on: KM12
LOX IMVI = tested on: LOX IMVI
M14 = tested on: M14
MCF7 = tested on: MCF7
MDA-MB-231 = tested on: MDA-MB-231
MDA-MB-435 = tested on: MDA-MB-435
MDA-N = tested on: MDA-N
MOLT-4 = tested on: MOLT-4
Malme-3M = tested on: Malme-3M
NCI-H226 = tested on: NCI-H226
NCI-H23 = tested on: NCI-H23
NCI/ADR-RES = tested on: NCI/ADR-RES
OVCAR-5 = tested on: OVCAR-5
OVCAR-8 = tested on: OVCAR-8
PC-3 = tested on: PC-3
RPMI-8226 = tested on: RPMI-8226
RXF 393 = tested on: RXF 393
SF-268 = tested on: SF-268
SF-295 = tested on: SF-295
SF-539 = tested on: SF-539
SK-MEL-2 = tested on: SK-MEL-2
SK-MEL-5 = tested on: SK-MEL-5
SK-OV-3 = tested on: SK-OV-3
SN12C = tested on: SN12C
SNB-19 = tested on: SNB-19
SNB-75 = tested on: SNB-75
SW-620 = tested on: SW-620
T47D = tested on: T47D
TK-10 = tested on: TK-10
U-251 = tested on: U-251
UACC-257 = tested on: UACC-257
UACC-62 = tested on: UACC-62
UO-31 = tested on: UO-31

SMILES: CCOC(=O)C1C(c2ccccc2)C2(C#N)C(=N)OC1(C)C2(C#N)C#N (stereo unspecified)
- GI50 (786-0): 13.6 µM (inactive)
- GI50 (A498): 32.7 µM (inactive)
- GI50 (A549): > 100 µM (inactive)
- GI50 (ACHN): 20.9 µM (inactive)
- GI50 (CAKI-1): 6.61 µM (inactive)
- GI50 (CCRF-CEM): 23.5 µM (inactive)
- GI50 (COLO 205): 16.4 µM (inactive)
- GI50 (DU-145): 30.6 µM (inactive)
- GI50 (EKVX): 21.1 µM (inactive)
- GI50 (HCC 2998): 13.8 µM (inactive)
- GI50 (HCT-116): 16.3 µM (inactive)
- GI50 (HCT-15): 37.3 µM
- GI50 (HL-60): 20.7 µM (inactive)
- GI50 (HOP-92): 20 µM (inactive)
- GI50 (HT-29): 16 µM (inactive)
- GI50 (Hs-578T): 29.5 µM (inactive)
- GI50 (IGROV-1): 18.5 µM (inactive)
- GI50 (K562): 19.8 µM (inactive)
- GI50 (KM12): > 10 µM (inactive)
- GI50 (LOX IMVI): 16 µM (inactive)
- GI50 (M14): 40.6 µM (inactive)
- GI50 (MCF7): 46.8 µM (inactive)
- GI50 (MDA-MB-231): 10.9 µM (inactive)
- GI50 (MDA-MB-435): 22.4 µM (inactive)
- GI50 (MDA-N): 14.7 µM (inactive)
- GI50 (MOLT-4): 21.1 µM (inactive)
- GI50 (Malme-3M): 20.5 µM (inactive)
- GI50 (NCI-H226): 24.3 µM (inactive)
- GI50 (NCI-H23): 17.5 µM (inactive)
- GI50 (NCI/ADR-RES): 27.1 µM (inactive)
- GI50 (OVCAR-5): 21.7 µM (inactive)
- GI50 (OVCAR-8): 24.5 µM (inactive)
- GI50 (PC-3): 25.6 µM (inactive)
- GI50 (RPMI-8226): 20 µM (inactive)
- GI50 (RXF 393): 15.8 µM (inactive)
- GI50 (SF-268): 22.4 µM (inactive)
- GI50 (SF-295): 36.2 µM (inactive)
- GI50 (SF-539): 18.1 µM (inactive)
- GI50 (SK-MEL-2): 20.7 µM (inactive)
- GI50 (SK-MEL-5): 10.5 µM (inactive)
- GI50 (SK-OV-3): > 100 µM (inactive)
- GI50 (SN12C): > 10 µM (inactive)
- GI50 (SNB-19): 40.6 µM (inactive)
- GI50 (SNB-75): 1.51 µM (inactive)
- GI50 (SW-620): 44.8 µM (inactive)
- GI50 (T47D): 32.1 µM (inactive)
- GI50 (TK-10): 26.2 µM (inactive)
- GI50 (U-251): 28.7 µM (inactive)
- GI50 (UACC-257): 20.5 µM (inactive)
- GI50 (UACC-62): 27 µM (inactive)
- GI50 (UO-31): 16.2 µM (inactive)
